Results from patent publication US20030203963A1, “Antimicrobial agent” (priority 2001, published 2003).

Experiments:
[1] = tested on: Br. thermosphacta CRA78884; experiment: Test in cooked sausage meat slurry; assay type: cell-based, Brochothrix thermosphacta; conditions: 500 ppm; cooked sausage meat slurry at 8° C., pH 6.2, TSM010605
Source text: 500 g of bologna sausage meat mixture was mixed with 500 g Brain Heart Infusion broth (BHIB) to make a homogeneous slurry. The bologna sausage meat mix comprised (g per kg): lean beef 320; lean pork 202; lard 250; water 40; glucose 5; starch 155; spice mix 3.75; sodium glutamate 0.5; sodium erythorbate 0.545; sodium di-phosphate 3; NaCl 20; sodium nitrite 0.15. 200 g samples of the meat slurry were autoclaved. While the meat was still warm it was re-mixed thoroughly. When the meat had cooled it was inoculated with 2 ml of 10^5 cfu/ml spore or cell suspension, and re-mixed again. […] The meat slurry was again shaken thoroughly to ensure even mixing, an initial viable count was taken and the samples incubated at 8° C. Samples were taken at twice-weekly intervals. The pH of the sausage meat slurry was 6.2.

Ps. fluorescens 3756 = experiment: Test in cooked minced beef slurry; assay type: cell-based, Pseudomonas fluorescens
Description: 1 kg of minced beef, purchased from the local butcher, was mixed with 1 litre of BHI. 200 g portion of this meat slurry was autoclaved. When the meat had cooled, the pH was recorded (pH 6.24), and each pot was inoculated with 2.0 ml of 10^5 spores or cells and the meat re-mixed thoroughly. Each inoculated 200 g pot was distributed as 3×50 g portions. To each pot 1 ml of SDW, 5% or 10% APP (Batch No. APP20010215) was added, and the meat was again mixed thoroughly. An initial viable count was performed, the meat was incubated at 8° C. and sampled twice weekly. The pH of the cooked minced beef slurry was 6.24.

L. monocytogenes 272 = experiment: Test in cooked sausage meat slurry; assay type: cell-based, Listeria monocytogenes
Source text: 500 g of bologna sausage meat mixture was mixed with 500 g Brain Heart Infusion broth (BHIB) to make a homogeneous slurry. The bologna sausage meat mix comprised (g per kg): lean beef 320; lean pork 202; lard 250; water 40; glucose 5; starch 155; spice mix 3.75; sodium glutamate 0.5; sodium erythorbate 0.545; sodium di-phosphate 3; NaCl 20; sodium nitrite 0.15. 200 g samples of the meat slurry were autoclaved. While the meat was still warm it was re-mixed thoroughly. When the meat had cooled it was inoculated with 2 ml of 10^5 cfu/ml spore or cell suspension, and re-mixed again. Each inoculated meat sample was divided into 3×50 g samples, and 1 ml of either SDW, 2.5% or 5% APP solution (batch number APP 20010215) was added to prepare meat samples containing 0, 500 and 1000 ppm APP. The meat slurry was again shaken thoroughly to ensure even mixing, an initial viable count was taken and the samples incubated at 8° C. Samples were taken at twice-weekly intervals. The pH of the sausage meat slurry was 6.2.

B. subtilis Campden = experiment: Bioscreen growth inhibition test; assay type: cell-based, Bacillus subtilis; conditions: BS010510, 24 h at 30° C., APP20010213
Description: (§1) For broth cultures and Bioscreen testing most bacteria were grown in Brain Heart Infusion (BHI, Oxoid, pH 7.4). Lactobacillus sake A10 was grown in de Man, Rogosa, Sharpe medium ([…], Oxoid). Yeasts were grown in Sabouraud Liquid medium (SLM, Oxoid). Most bacteria were cultured at 30° C. Lactic acid bacteria were grown on solid medium in enriched CO2 atmosphere. Clostridium species were grown in Reinforced Clostridial Medium (RCM) at 37° C. anaerobically. Brochothrix thermosphacta fungi and yeasts were grown at 25° C. Fungi were cultured on Malt Extract Agar (MEA, Oxoid).
(§2) An automated Microbiology Reader Bioscreen C was used to measure growth curves of the strains in the presence and absence of APP. The Bioscreen C measures the development of turbidity (i.e. growth) kinetically by vertical photometry in 200 wells of a honeycomb microtitre plate, simultaneously. The system consists of a Bioscreen C analyser, which is an incubator and measurement unit, integrated with a PC, software (BioLink v 5.30), printer and a ‘Honeycomb 2’ cuvette multiwell plate. Growth curve data can be analysed within the BioLink software or exported to programs such as Excel.
Broth culture media were dispensed in 270 μl volumes into the wells as directed. […] (depending on the micro-organism under investigation) with readings taken every 20 minutes after the trays were shaken. […]

B. cereus 204 = experiment: Bioscreen growth inhibition test; assay type: cell-based, Bacillus cereus; conditions: BS010411, 24 h at 30° C.
Description: as §1, §2
(§3) Broth culture media were dispensed in 270 μl volumes into the wells as directed. Serial dilutions of a filter-sterilised APP stock solution were then dispensed into the same wells, as appropriate. The wells were inoculated with 30 μl of an appropriately diluted overnight broth culture or spore suspension, to give a final inoculum level of […]. The tests were incubated in the Bioscreen C for either 24 h at 30° C., or 72 h at 25° C. (depending on the micro-organism under investigation) with readings taken every 20 minutes after the trays were shaken. After the incubation period was complete the data were exported to Excel for analysis.

B. cereus Campden = experiment: Bioscreen growth inhibition test; assay type: cell-based, Bacillus cereus; conditions: BS010411, 24 h at 30° C.
Description: as §1, §2, §3

B. cereus 3.046 = experiment: Bioscreen growth inhibition test; assay type: cell-based, Bacillus cereus; conditions: BS010510, 24 h at 30° C., APP20010213
Description: as §1, §2, §3

Ps. fluorescens 327 = experiment: Test in cooked minced chicken slurry; assay type: cell-based, Pseudomonas fluorescens; conditions: 2000 ppm, minced chicken slurry at 8° C.
Description: 1 kg of minced chicken (mainly lean meat) was purchased from the local butcher. This was mixed with 1 litre of BHI, mixed and dispensed as 100 g samples prior to autoclaving. When still warm, the meat was re-mixed thoroughly. When cooked, the meat was inoculated with 1 ml of 10^5 spores or cells (from an overnight broth), and re-mixed. The samples were then divided into 3×25 g portions, to which 0.5 ml of filter-sterilised APP20010215 was added (as 5% or 10% stock solutions) or water. An initial viable count was taken, and the samples then incubated at 8° C. and tested twice weekly. The pH of the chicken slurry was 6.42.

S. cerevisiae ATCC9763 = experiment: Bioscreen growth inhibition test; assay type: cell-based, Saccharomyces cerevisiae; conditions: APP 213, BS010420, 72 h/25° C.
Description: as §1, §2, §3

S cerevisiae H78 = experiment: Bioscreen growth inhibition test; assay type: cell-based, Saccharomyces cerevisiae; conditions: APP 213, BS010420, 72 h/25° C.
Description: as §1, §2, §3

## O=C1CC(CO)OC=C1O (stereo not shown) [APP, Ascopyrone P]
[1]
  Effect on growth: No significant effect with 500 and 100 ppm
Ps. fluorescens 3756; 1000 ppm, minced beef slurry at 8° C., pH 6.24, TCM010619
  Growth delayed by: 1000 ppm delayed growth by 17 d
Ps. fluorescens 3756; 2000 ppm, minced beef slurry at 8° C., pH 6.24, TCM010619
  Total inhibition for: Total inhibition by 2000 ppm for 27 d
Ps. fluorescens 3756; Cooked minced beef slurry at 8° C. pH 6.24
  Total inhibition (effect on growth of target organism by 2000 ppm APP): Ps. fluorescens
L. monocytogenes 272; 1000 ppm, cooked sausage meat slurry at 8° C., TSM010605, controls 7 d
  10^6 reached at: 7 d
L. monocytogenes 272; 1000 ppm, cooked sausage meat slurry at 8° C., pH 6.2, TSM010605
  Effect on growth: No total inhibition
L. monocytogenes 272; Cooked sausage meat slurry at 8° C. pH 6.2, (1000)
  Partial inhibition (effect on growth of target organism by APP): L. monocytog.
B. subtilis Campden
  APP level causing significant inhibition: 2000 ppm
  APP level causing total inhibition: 3000 ppm
B. cereus 204; APP20010213
  APP level causing significant inhibition: 4000 ppm
  APP level causing total inhibition: >4000 ppm
B. cereus 204; APP20010215
  APP level causing significant inhibition: 2000 ppm
  APP level causing total inhibition: 4000 ppm
B. cereus Campden; APP20010213
  APP level causing significant inhibition: 2000 ppm
  APP level causing total inhibition: 4000 ppm
B. cereus Campden; APP20010215
  APP level causing significant inhibition: 2000 ppm
  APP level causing total inhibition: >4000 ppm
B. cereus 3.046
  APP level causing significant inhibition: 2000 ppm
  APP level causing total inhibition: 3000 ppm
Ps. fluorescens 327; TCC010704, controls 3 d
  10^6 reached at: 10 d
Ps. fluorescens 327; pH 6.42, TCC010704
  Effect on growth: No total inhibition
S. cerevisiae ATCC9763
  APP level causing significant inhibition: Enhanced growth
  APP level causing total inhibition: >4000
S cerevisiae H78
  APP level causing significant inhibition: 4000
  APP level causing total inhibition: >4000
